Reference: the Deep4Chem optical property database
“And” between values parts separate entries of the source, which are not always exact repeats. Equal values may be shown once.

Test: solvent given as SMILES
[1] = in O=P(c1ccccc1)(c1ccccc1)c1ccccc1Oc1ccccc1P(=O)(c1ccccc1)c1ccccc1

In the case of `CC(C)(C)c1ccc2c(c1)c1cc(C(C)(C)C)ccc1n2-c1ccc(N(c2ccc(-c3ccc(-c4ccc(-c5ccc(-c6ccc(N(c7ccc(-n8c9ccc(C(C)(C)C)cc9c9cc(C(C)(C)C)ccc98)cc7)c7ccc(-n8c9ccc(C(C)(C)C)cc9c9cc(C(C)(C)C)ccc98)cc7)cc6)s5)c5nsnc45)s3)cc2)c2ccc(-n3c4ccc(C(C)(C)C)cc4c4cc(C(C)(C)C)ccc43)cc2)cc1`, the emission maximum (in ClCCl) is reported as 640 nm.
`CCOC(=O)/C(C#N)=C/c1cc2c3ccccc3n(C)c2cc1OC` showed an emission maximum (in C1CCOC1) of 460 nm, an emission maximum (in CC#N) of 486 nm and an emission maximum (in CCOC(C)=O) of 458 nm. The emission maximum (in CN(C)C=O) was 486 nm, the emission maximum (in CO) was 486 nm and the emission maximum (in CS(C)=O) was 488 nm. It also gave an emission maximum (in Cc1ccccc1) of 446 nm, an emission maximum (in ClC(Cl)Cl) of 468 nm and an emission maximum (in ClCCl) of 472 nm.
For `CN(C)c1ccc(/C=C(\C#N)c2nc3ccccc3s2)cc1`, the emission maximum (in C1CCCCC1) was 500 nm and the emission maximum (in CO) was 520 nm.
For `c1cnc(-c2c3ccccc3c(-c3cncnc3)c3ccccc23)nc1`, the emission maximum (in CCO) was 433 nm and the emission maximum (in ClCCl) was 436 nm.
In the case of `Cc1c(C)c(N2c3ccccc3CCc3ccccc32)c(C)c(C)c1-c1nc(-c2ccccc2)nc(-c2ccccc2)n1`, the emission maximum (in Cc1ccccc1) is reported as 457.94 nm.
Compound `COc1cccc(-c2c3ccccc3c3n2[B-](F)(F)[N+]2=Cc4c5ccccc5c(-c5cccc(OC)c5)n4[B-](F)(F)[N+]2=C3)c1` has an emission maximum (in CC#N) of 596 nm, an emission maximum (in CCCCCC) of 598 nm and an emission maximum (in CN(C)C=O) of 603 nm. It also gave an emission maximum (in Cc1ccccc1) of 608 nm and an emission maximum (in ClCCl) of 602 nm.
For `Cc1ccc(C2CC(=O)Oc3c2c2nc4ccc(C)cc4nc2c2ccccc32)cc1` (configuration not stated), the emission maximum (in ClC(Cl)Cl) was 442 nm.
Work on `CCC1(CC)c2cc(/C=C/c3ccc(/C=C/c4ccc5c(c4)C(CC)(CC)c4cc(N6c7ccccc7Sc7ccccc76)ccc4-5)cc3)ccc2-c2ccc(N3c4ccccc4Sc4ccccc43)cc21` yielded an emission maximum (in C1CCOC1) of 434 nm, an emission maximum (in CC#N) of 457 nm and an emission maximum (in CCCCCC) of 455 nm. The emission maximum (in Cc1ccccc1) was 462 nm and the emission maximum (in ClCCl) was 435 nm.
`Cc1cc(-c2nc(-c3ccccc3)nc(-c3ccccc3)n2)ccc1-n1c2ccccc2c2cc3c(cc21)C1c2ccccc2C3c2ccccc21` gave an emission maximum (in Cc1ccccc1) of 431 nm and an emission maximum [1] of 451 nm.
With `CC[C@H](C)COc1ccc(C2=C3C(C)=C(I)C(C)=[N+]3[B-](F)(F)n3c(C)c(I)c(C)c32)cc1` the emission maximum (in ClCCl) was 557 nm.
For `Oc1ccccc1`, the emission maximum (in C1CCCCC1) was 294.99 nm.
For `CCCCN(CCCC)c1ccc(C#Cc2cc(C#Cc3c(F)c(F)c(F)c(F)c3F)c(C#Cc3ccc(N(CCCC)CCCC)cc3)cc2C#Cc2c(F)c(F)c(F)c(F)c2F)cc1`, the emission maximum (in ClCCl) was 563 nm and the emission maximum (in c1ccccc1) was 534 nm.
`N#Cc1cc(-c2ccccc2)c(N2c3ccccc3Oc3ccccc32)c(-c2ccccc2)c1` gave an emission maximum (in C1CCCCC1) of 455 nm.
`F[B-]1(F)n2cccc2C(c2ccccc2)=C2C=CC=[N+]21` showed an emission maximum (in Cc1ccccc1) of 521 nm and an emission maximum (in ClCCl) of 522 nm.
`CC[n+]1c(-c2ccccc2)c2cc(N)ccc2c2ccc(N)cc21` showed an emission maximum (in O) of 606 nm.
Work on `Oc1ccc(Br)cc1-c1nc2c(c3c1-c1ccccc1CC3)-c1ccccc1CC2` yielded an emission maximum (in ClCCl) of 421 nm.
With `COc1ccc2cc(C#N)c(=N)oc2c1` the emission maximum (in ClCCl) was 387 nm.
With `C[Si](C)(C)c1cccc2ccccc12` the emission maximum (in C1CCCCC1) was 328 nm.
In the case of `Cc1cc2c(ccc3c[n+](C)c(C)cc32)c[n+]1C`, the emission maximum (in CC#N) is reported as 419 nm.
With `[NH3+]c1ccc2ccc(O)cc2c1` the emission maximum (in O) was 357 nm.
Compound `CCOc1ccc2c(-c3nc(-c4ccccc4)no3)cc(=O)oc2c1` has an emission maximum (in CCO) of 468 nm and an emission maximum (in ClC(Cl)Cl) of 454 nm.
Work on `N#Cc1cc(/C=C/c2ccc(/C=C/c3ccc(N(c4ccccc4)c4ccccc4)cc3)c(C#N)c2)ccc1/C=C/c1ccc(N(c2ccccc2)c2ccccc2)cc1` yielded an emission maximum (in ClCCl) of 577 nm.
For `CCOC(=O)C1=C(N)n2c(=O)c3ccccc3c(=O)n2C1c1ccc(C)cc1` (configuration not stated), the emission maximum (in CS(C)=O) was 517 nm.
For `c1ccc(-c2nc(-c3ccccc3)nc(-c3ccc(-n4c5ccc(-c6ccc7oc8ccccc8c7c6)cc5c5cc(-c6ccc7oc8ccccc8c7c6)ccc54)cc3)n2)cc1`, the emission maximum (in CCOC(C)=O) was 476 nm, the emission maximum (in CN(C)C=O) was 529 nm and the emission maximum (in Cc1ccccc1) was 437 nm.
For `N=c1oc2ccccc2cc1-c1ccc([N+](=O)[O-])cc1`, the emission maximum (in C1CCOC1) was 442 nm, the emission maximum (in CC#N) was 550 nm and the emission maximum (in CS(C)=O) was 589 nm. The emission maximum (in ClC(Cl)Cl) was 436 nm.
Work on `N#CC1=CC(Br)=CC(C#N)=P1(c1ccccc1)c1ccccc1` yielded an emission maximum (in ClC(Cl)Cl) of 519 nm.
Work on `N#Cc1cc(C#N)c(-n2c3ccccc3c3cc(-c4ccc5c(c4)c4ccccc4n5-c4cc(-n5c6ccccc6c6ccccc65)c(C#N)cc4C#N)ccc32)cc1-n1c2ccccc2c2ccccc21` yielded an emission maximum [1] of 470 nm.
`Cc1ccc(-c2ccc(-c3ccc(-c4ccc(C)cc4)cc3/C(=C(/c3ccccc3)c3cc(-c4ccc(C)cc4)ccc3-c3ccc(-c4ccc(C)cc4)cc3)c3ccccc3)cc2)cc1` showed an emission maximum (in C1CCOC1) of 498 nm.
For `COC(=O)/C(C#N)=c1\s/c(=c2/s/c(=C(/C#N)C(=O)OC)c3cc(-c4ccc(F)cc4)sc23)c2sc(-c3ccc(F)cc3)cc12`, the emission maximum (in Cc1ccccc1) was 640 nm.
Work on `CCCCn1c2ccccc2c2ccc(C#Cc3ccc4ccc5cccc6ccc3c4c56)cc21` yielded an emission maximum (in ClCCl) of 411 nm.
With `CC(C)(C)c1ccc(-c2cc3c(-c4ccc(C(C)(C)C)cc4)c4cccc5c(-c6ccc(C(C)(C)C)cc6)cc6c(-c7ccc(C(C)(C)C)cc7)c7cccc2c7c3c6c54)cc1` the emission maximum (in C1CCCCC1) was 463 nm, the emission maximum (in CC#N) was 464 nm and the emission maximum (in CO) was 462 nm. It also gave an emission maximum (in Cc1ccccc1) of 467 nm and an emission maximum (in ClCCl) of 467 nm.
With `CCCCCCCCCCCCCCCCCCOc1ccc(C#Cc2cc3nc4c(OCCCCCCCCCCCC)cc5c6cc(OCCCCCCCCCCCC)c(OCCCCCCCCCCCC)cc6c6cc(OCCCCCCCCCCCC)c(OCCCCCCCCCCCC)cc6c5c4nc3cc2C#Cc2ccc(OCCCCCCCCCCCCCCCCCC)cc2)cc1` the emission maximum (in ClC(Cl)Cl) was 660 nm.
`Ic1ccc(-c2c3ccc(=[N+]4CCCCC4)cc-3oc3cc(N4CCCCC4)ccc23)cc1` showed an emission maximum (in CCO) of 592 nm and an emission maximum (in ClCCl) of 590 nm.
For `CC[n+]1nc2ccc(N(C)C)cc2c2cc(C)ccc21`, the emission maximum (in O) was 542 nm.
`Cc1ccc(-c2ccc(/C=C/c3ccc(F)cc3)cn2)nc1` showed an emission maximum (in CC#N) of 391 nm.
For `COc1cc(OC)cc(C2=C3C(C)=C(I)C(/C=C/c4c[nH]c5ccc([N+](=O)[O-])cc45)=[N+]3[B-](F)(F)n3c(/C=C/c4c[nH]c5ccc([N+](=O)[O-])cc45)c(I)c(C)c32)c1`, the emission maximum (in C1CCOC1) was 720 nm, the emission maximum (in CS(C)=O) was 748 nm and the emission maximum (in ClCCl) was 721 nm.
Compound `Nc1ccc2c(c1)Cc1ccccc1-2` has an emission maximum (in C1CCCCC1) of 347 nm, an emission maximum (in C1COCCO1) of 363 nm and an emission maximum (in CC#N) of 363 nm. The emission maximum (in CC(C)O) was 369 nm, the emission maximum (in CCCCCC) was 344 nm and the emission maximum (in CCCCCCC) was 344 nm. For the same compound, the emission maximum (in CCO) was 368 nm, the emission maximum (in CCOC(C)=O) was 360 nm and the emission maximum (in CCOCC) was 349 nm. It also gave an emission maximum (in CO) of 367 nm, an emission maximum (in ClCCl) of 353 nm and an emission maximum (in O) of 377 nm.
`CCOC(=O)c1cc(C(=O)OCC)c2cc(N(CC)CC)ccc2n1` showed an emission maximum (in CCO) of 561 nm.
In the case of `CC(=O)Nc1ccc(C2=C/C(=C\c3ccc(C#N)cc3)C(=O)O2)cc1`, the emission maximum (in C1COCCO1) is reported as 521 nm.
Compound `Cc1sc(Cl)cc1-c1nc(-c2ccc(Cl)cc2)[nH]c1-c1cc(Cl)sc1C` has an emission maximum (in CC#N) of 390 nm.
`Fc1cc(-c2ccc(-c3nc4cc(Br)ccc4[nH]3)cc2)ccc1-c1ccc(-c2nc3cc(Br)ccc3[nH]2)cc1` showed an emission maximum (in CN(C)C=O) of 417 nm.
In the case of `CCCCCCCCCCCCCCCCCCN1C(=O)c2ccc3c4ccc5c6c(ccc(c7ccc(c2c37)C1=O)c64)C(=O)N(CCCCCCCCCCCCCCCCCC)C5=O`, the emission maximum (in CN(C)C=O) is reported as 535 nm.
Work on `C1=[N+](c2ccccc2)[B-](c2ccccc2)(c2ccccc2)Oc2c1ccc1c3c(ccc21)C=[N+](c1ccccc1)[B-](c1ccccc1)(c1ccccc1)O3` yielded an emission maximum (in Cc1ccccc1) of 602 nm and an emission maximum (in ClCCl) of 594 nm.
With `CCOC(=O)c1c(-c2cc3ccccc3oc2=O)nn(-c2ccc(Cl)cc2)c1C(=O)OCC` the emission maximum (in ClCCl) was 402 nm.
With `COc1ccc(-c2cc3c(ccc4sc5ccc6sc(-c7ccc(C#N)cc7)cc6c5c43)s2)cc1` the emission maximum (in ClCCl) was 469 nm.
In the case of `c1ccc2cc3ccccc3cc2c1`, the emission maximum (in C1CCCCC1) is reported as 400 nm and 407.66 nm, the emission maximum (in C1CCOC1) is reported as 397 nm and the emission maximum (in CO) is reported as 400 nm.
`CCCCCCc1ccc2c3c(ccc2c1)O[B-](F)(F)[N+](c1ccc([N+]2=Cc4c(ccc5cc(CCCCCC)ccc45)O[B-]2(F)F)cc1)=C3` showed an emission maximum (in C1CCOC1) of 505 nm, an emission maximum (in CC#N) of 502 nm and an emission maximum (in Cc1ccccc1) of 508 nm. It also gave an emission maximum (in ClCCl) of 507 nm.
In the case of `c1ccc2[nH]c(-c3ccc(-c4ccc(-c5ccc(-c6nc7ccccc7[nH]6)cc5)cc4)cc3)nc2c1`, the emission maximum (in CN(C)C=O) is reported as 409 nm.
For `FC(F)(F)c1ccc(/C2=C3N=C(C(c4ccccc4)=C/3c3ccccc3)/C(c3ccc(C(F)(F)F)cc3)=c3\[nH]/c(c(-c4ccccc4)c3-c3ccccc3)=C(/c3ccc(C(F)(F)F)cc3)C3=N/C(=C(/c4ccc(C(F)(F)F)cc4)c4[nH]c2c(-c2ccccc2)c4-c2ccccc2)C(c2ccccc2)=C3c2ccccc2)cc1`, the emission maximum (in ClCCl) was 730 nm.
With `CC1(C)c2ccccc2N(c2ccc(-c3cc(-c4ccccc4)nc(-c4ccccc4)n3)cc2)c2ccccc21` the emission maximum (in Cc1ccccc1) was 475.6 nm.
In the case of `Cc1ccc2nc3cc4c(cc3c(-c3ccccc3)c2c1)[Si](C)(C)O[Si](C)(C)O[Si]4(C)C`, the emission maximum (in ClCCl) is reported as 502 nm.
Compound `CCn1c2ccccc2c2cc(C#Cc3cc(C#Cc4ccc5c(c4)c4ccccc4n5CC)nc(C#N)n3)ccc21` has an emission maximum (in C1CCOC1) of 495 nm, an emission maximum (in CCOC(C)=O) of 494 nm and an emission maximum (in CN(C)C=O) of 557 nm. The emission maximum (in Cc1ccccc1) was 445 nm and the emission maximum (in ClCCl) was 510 nm.
With `O=[N+]([O-])c1ccc(C#Cc2ccc3ccccc3c2)cc1` the emission maximum (in ClC(Cl)Cl) was 536 nm and the emission maximum (in ClCCl) was 546 nm.
`COc1ccc(-c2ccc(OC)cc2)cc1` showed an emission maximum (in C1CCCCC1) of 363.77 nm.
For `Cc1cc2cc3ccccc3cc2cn1`, the emission maximum (in CCO) was 437.06 nm.
With `CN(C)c1ccc(C2=CC3=C(c4ccc(C=C(C#N)C#N)cc4)[C@H]4c5ccccc5[C@]3(S2)c2ccccc24)cc1` the emission maximum (in ClCCl) was 735 nm.
Work on `C(=C\c1ncnc2ccccc12)/c1ccc(N(c2ccccc2)c2ccccc2)cc1` yielded an emission maximum (in C1CCCCC1) of 463 nm, an emission maximum (in C1CCOC1) of 540 nm and an emission maximum (in CC#N) of 598 nm. It also gave an emission maximum (in CS(C)=O) of 600 nm and an emission maximum (in ClCCl) of 571 nm.
